Data as given in BigSolDB 2.1.

SMILES: O=P(NCc1ccccc1)(Oc1ccccc1)Oc1ccccc1
- solubility (mole fraction) (in THF, 293.15 K): 0.0978
- solubility (mole fraction) (in THF, 298.15 K): 0.115
- solubility (mole fraction) (in THF, 303.15 K): 0.132
- solubility (mole fraction) (in THF, 308.15 K): 0.157
- solubility (mole fraction) (in THF, 313.15 K): 0.183
- solubility (mole fraction) (in THF, 318.15 K): 0.208
- solubility (mole fraction) (in THF, 323.15 K): 0.24
- solubility (mole fraction) (in acetone, 293.15 K): 0.0447
- solubility (mole fraction) (in acetone, 298.15 K): 0.0587
- solubility (mole fraction) (in acetone, 303.15 K): 0.0741
- solubility (mole fraction) (in acetone, 308.15 K): 0.0986
- solubility (mole fraction) (in acetone, 313.15 K): 0.122
- solubility (mole fraction) (in acetone, 318.15 K): 0.154
- solubility (mole fraction) (in acetone, 323.15 K): 0.198
- solubility (mole fraction) (in acetonitrile, 293.15 K): 0.0148
- solubility (mole fraction) (in acetonitrile, 298.15 K): 0.0196
- solubility (mole fraction) (in acetonitrile, 303.15 K): 0.0264
- solubility (mole fraction) (in acetonitrile, 308.15 K): 0.0344
- solubility (mole fraction) (in acetonitrile, 313.15 K): 0.0431
- solubility (mole fraction) (in acetonitrile, 318.15 K): 0.0591
- solubility (mole fraction) (in acetonitrile, 323.15 K): 0.0742
- solubility (mole fraction) (in acetonitrile, 328.15 K): 0.0948
- solubility (mole fraction) (in acetonitrile, 333.15 K): 0.122
- solubility (mole fraction) (in acetonitrile, 338.15 K): 0.155
- solubility (mole fraction) (in chloroform, 288.15 K): 0.095
- solubility (mole fraction) (in chloroform, 293.15 K): 0.109
- solubility (mole fraction) (in chloroform, 298.15 K): 0.126
- solubility (mole fraction) (in chloroform, 303.15 K): 0.143
- solubility (mole fraction) (in chloroform, 308.15 K): 0.164
- solubility (mole fraction) (in chloroform, 313.15 K): 0.191
- solubility (mole fraction) (in chloroform, 318.15 K): 0.218
- solubility (mole fraction) (in chloroform, 323.15 K): 0.248
- solubility (mole fraction) (in chloroform, 328.15 K): 0.275
- solubility (mole fraction) (in dichloromethane, 288.15 K): 0.055
- solubility (mole fraction) (in dichloromethane, 293.15 K): 0.0724
- solubility (mole fraction) (in dichloromethane, 298.15 K): 0.0965
- solubility (mole fraction) (in dichloromethane, 303.15 K): 0.126
- solubility (mole fraction) (in dichloromethane, 308.15 K): 0.157
- solubility (mole fraction) (in ethyl acetate, 293.15 K): 0.0199
- solubility (mole fraction) (in ethyl acetate, 298.15 K): 0.0279
- solubility (mole fraction) (in ethyl acetate, 303.15 K): 0.0368
- solubility (mole fraction) (in ethyl acetate, 308.15 K): 0.0484
- solubility (mole fraction) (in ethyl acetate, 313.15 K): 0.0627
- solubility (mole fraction) (in ethyl acetate, 318.15 K): 0.0824
- solubility (mole fraction) (in ethyl acetate, 323.15 K): 0.104
- solubility (mole fraction) (in ethyl acetate, 328.15 K): 0.137
- solubility (mole fraction) (in ethyl acetate, 333.15 K): 0.182
- solubility (mole fraction) (in methanol, 293.15 K): 0.0111
- solubility (mole fraction) (in methanol, 298.15 K): 0.0158
- solubility (mole fraction) (in methanol, 303.15 K): 0.0231
- solubility (mole fraction) (in methanol, 308.15 K): 0.0322
- solubility (mole fraction) (in methanol, 313.15 K): 0.0449
- solubility (mole fraction) (in methanol, 318.15 K): 0.0629
- solubility (mole fraction) (in methanol, 323.15 K): 0.0875
- solubility (mole fraction) (in methanol, 328.15 K): 0.125
- solubility (mole fraction) (in methanol, 333.15 K): 0.166
- solubility (mole fraction) (in methyl acetate, 288.15 K): 0.0168
- solubility (mole fraction) (in methyl acetate, 293.15 K): 0.0234
- solubility (mole fraction) (in methyl acetate, 298.15 K): 0.0309
- solubility (mole fraction) (in methyl acetate, 303.15 K): 0.0407
- solubility (mole fraction) (in methyl acetate, 308.15 K): 0.055
- solubility (mole fraction) (in methyl acetate, 313.15 K): 0.0699
- solubility (mole fraction) (in methyl acetate, 318.15 K): 0.094
- solubility (mole fraction) (in methyl acetate, 323.15 K): 0.122
- solubility (mole fraction) (in toluene, 293.15 K): 0.0109
- solubility (mole fraction) (in toluene, 298.15 K): 0.016
- solubility (mole fraction) (in toluene, 303.15 K): 0.0228
- solubility (mole fraction) (in toluene, 308.15 K): 0.0312
- solubility (mole fraction) (in toluene, 313.15 K): 0.0428
- solubility (mole fraction) (in toluene, 318.15 K): 0.0574
- solubility (mole fraction) (in toluene, 323.15 K): 0.0814
- solubility (mole fraction) (in toluene, 328.15 K): 0.108
- solubility (mole fraction) (in toluene, 333.15 K): 0.146
- solubility (mole fraction) (in toluene, 338.15 K): 0.187
- solubility (mole fraction) (in toluene, 343.15 K): 0.243
